What follows are molecules tested on VCaP cells (assay: Cellular growth inhibition assay for VCaP cells, CellTiter-Glo). Conditions: 72 hours treatment, CellTiter-Glo 2.0.
Type: cell-based, human
Summary of the method: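 GI50 values come from four-parameter curve fits of luminescence data normalized to a zero baseline. Compound, in medium with 0.5% DMSO, was added one day after plating and left for 72 h before CellTiter-Glo 2.0 addition.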

Row | SMILES | GI50 [nM]
1 | Cc1sc2c(c1C)C(c1ccc(Cl)cc1)=N[C@@H](CC(=O)NCCCCCOC1CCN(c3ncc(C(=O)N[C@H]4C(C)(C)[C@H](Oc5ccc(C#N)c(Cl)c5)C4(C)C)cn3)CC1)c1nnc(C)n1-2 [Compound I-22, N-((1r,3r)-3-(3-chloro-4-cyanophenoxy)-2,2,4,4-tetramethylcyclobutyl)-2-(4-((5-(2-((S)-4-(4-chlorophenyl)-2,3,9-trimethyl-6H-thieno[3,2-A][1,2,4]triazolo[4,3-a][1,4]diazepin-6-yl)acetamido)pentyl)oxy)piperidin-1-yl)pyrimidine-5-carboxamide] | < 500

Same assay, conditions: Homo sapiens, VCaP, 72 h, 72 hours treatment, CellTiter-Glo 2.0

Row | SMILES | GI50 [nM]
2 | Cc1sc2c(c1C)C(c1ccc(Cl)cc1)=N[C@@H](CC(=O)NCCOCCOCCOCCOCCN(C)c1ncc(C(=O)N[C@H]3C(C)(C)[C@H](Oc4ccc(C#N)c(Cl)c4)C3(C)C)cn1)c1nnc(C)n1-2 [Compound I-3, N-((1r,3r)-3-(3-chloro-4-cyanophenoxy)-2,2,4,4-tetramethylcyclobutyl)-2-((1-((S)-4-(4-chlorophenyl)-2,3,9-trimethyl-6H-thieno[3,2-f][1,2,4]triazolo[4,3-a][1,4]diazepin-6-yl)-2-oxo-6,9,12,15-tetraoxa-3-azaheptadecan-17-yl)(methyl)amino)pyrimidine-5-carboxamide] | < 500
3 | Cc1sc2c(c1C)C(c1ccc(Cl)cc1)=N[C@@H](CC(=O)NCCOCCOCCOCCOC1CCN(c3ncc(C(=O)N[C@H]4C(C)(C)[C@H](Oc5ccc(C#N)c(Cl)c5)C4(C)C)cn3)CC1)c1nnc(C)n1-2 [Compound I-11] | < 500
4 | Cc1sc2c(c1C)C(c1ccc(Cl)cc1)=N[C@H](CC(=O)NCCOCCOCCOCCOCCOC1CCN(c3ncc(C(=O)N[C@H]4C(C)(C)[C@H](Oc5ccc(C#N)c(Cl)c5)C4(C)C)cn3)CC1)c1nnc(C)n1-2 [Compound I-14] | > 3000
5 | Cc1sc2c(c1C)C(c1ccc(OC3CC4(CCN(c5ncc(C(=O)N[C@H]6C(C)(C)[C@H](Oc7ccc(C#N)c(Cl)c7)C6(C)C)cn5)CC4)C3)cc1)=N[C@@H](Cc1ncco1)c1nnc(C)n1-2 [Compound I-49, N-[3-(3-chloro-4-cyano-phenoxy)-2,2,4,4-tetramethyl-cyclobutyl]-2-[2-[4-[(9S)-4,5,13-trimethyl-9-(oxazol-2-ylmethyl)-3-thia-1,8,11,12-tetrazatricyclo[8.3.0.02,6]trideca-2(6),4,7,10,12-pentaen-7-yl]phenoxy]-7-azaspiro[3.5]nonan-7-yl]pyrimidine-5-carboxamide] | < 500
6 | CCNC(=O)C[C@@H]1N=C(c2ccc(C#CCN3CCN(c4ncc(C(=O)N[C@H]5C(C)(C)[C@H](Oc6ccc(C#N)c(Cl)c6)C5(C)C)cn4)CC3)cc2)c2c(sc(C)c2C)-n2c(C)nnc21 [Compound I-54, N-[3-(3-chloro-4-cyano-phenoxy)-2,2,4,4-tetramethyl-cyclobutyl]-2-[4-[3-[4-[(9S)-9-[2-(ethylamino)-2-oxo-ethyl]-4,5,13-trimethyl-3-thia-1,8,11,12-tetrazatricyclo[8.3.0.02,6]trideca-2(6),4,7,10,12-pentaen-7-yl]phenyl]prop-2-ynyl]piperazin-1-yl]pyrimidine-5-carboxamide] | < 500
7 | Cc1sc2c(c1C)C(c1ccc(C#CCN3CCN(c4ncc(C(=O)N[C@H]5C(C)(C)[C@H](Oc6ccc(C#N)c(Cl)c6)C5(C)C)cn4)CC3)cc1)=N[C@@H](CC(=O)OC(C)(C)C)c1nnc(C)n1-2 [Compound I-55] | > 3000
8 | CCNC(=O)C[C@@H]1N=C(c2ccc(OCCOC3CCN(c4ncc(C(=O)N[C@H]5C(C)(C)[C@H](Oc6ccc(C#N)c(Cl)c6)C5(C)C)cn4)CC3)c(F)c2F)c2c(sc(C)c2C)-n2c(C)nnc21 [Compound I-73] | < 500
9 | CCNC(=O)C[C@@H]1N=C(c2ccc(OCCOC3CCN(c4ncc(C(=O)N[C@H]5C(C)(C)[C@H](Oc6ccc(C#N)c(Cl)c6)C5(C)C)cn4)CC3)cc2F)c2c(sc(C)c2C)-n2c(C)nnc21 [Compound I-75] | < 500
10 | CCNC(=O)C[C@@H]1N=C(c2ccc(Oc3ncc(C(=O)N[C@H]4C(C)(C)[C@H](Oc5ccc(C#N)c(Cl)c5)C4(C)C)cn3)cc2)c2c(sc(C)c2C)-n2c(C)nnc21 [Compound I-84] | 500 to 1500
11 | CCNC(=O)C[C@@H]1N=C(c2ccc(OC3CCN(C4CCN(c5ncc(C(=O)N[C@H]6C(C)(C)[C@H](Oc7ccc(C#N)c(Cl)c7)C6(C)C)cn5)CC4)C3)cc2)c2c(sc(C)c2C)-n2c(C)nnc21 (stereo partly shown) [Compound I-85] | < 500
12 | CCNC(=O)C[C@@H]1N=C(c2ccc(CCCN(C)c3ncc(C(=O)N[C@H]4C(C)(C)[C@H](Oc5ccc(C#N)c(Cl)c5)C4(C)C)cn3)cc2)c2c(sc(C)c2C)-n2c(C)nnc21 [Compound I-104] | > 3000
13 | CCNC(=O)C[C@@H]1N=C(c2ccc(N(C)CC3CN(c4ncc(C(=O)N[C@H]5C(C)(C)[C@H](Oc6ccc(C#N)c(Cl)c6)C5(C)C)cn4)C3)cc2)c2c(sc(C)c2C)-n2c(C)nnc21 [Compound I-107] | < 500
14 | CCNC(=O)C[C@@H]1N=C(c2ccc(N(C)CCN3CCN(c4ncc(C(=O)N[C@H]5C(C)(C)[C@H](Oc6ccc(C#N)c(Cl)c6)C5(C)C)cn4)CC3)cc2)c2c(sc(C)c2C)-n2c(C)nnc21 [Compound I-108] | 500 to 1500

Further lines, results first:

Row | GI50 [nM] | SMILES
15 | 500 to 1500 | CCNC(=O)C[C@@H]1N=C(c2ccc(OCCOC3CCN(c4ncc(C(=O)N[C@H]5C(C)(C)[C@H](Oc6ccc(C#N)c(Cl)c6)C5(C)C)cn4)CC3)cc2)c2c(sc(C)c2C)-n2c(C)nnc21 [Compound I-60, N-((1r,3r)-3-(3-chloro-4-cyanophenoxy)-2,2,4,4-tetramethylcyclobutyl)-2-(4-(2-(4-((S)-6-(2-(ethylamino)-2-oxoethyl)-2,3,9-trimethyl-6H-thieno[3,2-f][1,2,4]triazolo[4,3-a][1,4]diazepin-4-yl)phenoxy)ethoxy)piperidin-1-yl)pyrimidine-5-carboxamide]
16 | 500 to 1500 | CCNC(=O)C[C@@H]1N=C(c2ccc(OC3CCN(c4ncc(C(=O)N[C@H]5C(C)(C)[C@H](Oc6ccc(C#N)c(Cl)c6)C5(C)C)cn4)CC3)cc2)c2c(sc(C)c2C)-n2c(C)nnc21 [Compound I-61]
17 | < 500 | CCN(C)C(=O)C[C@@H]1N=C(c2ccc(OCCOC3CCN(c4ncc(C(=O)N[C@H]5C(C)(C)[C@H](Oc6ccc(C#N)c(Cl)c6)C5(C)C)cn4)CC3)cc2)c2c(sc(C)c2C)-n2c(C)nnc21 [Compound I-66]
18 | 500 to 1500 | CCNC(=O)C[C@@H]1N=C(c2ccc(OCCOC3CCN(c4ncc(C(=O)N[C@H]5C(C)(C)[C@H](Oc6ccc(C#N)c(Cl)c6)C5(C)C)cn4)CC3)c(F)c2)c2c(sc(C)c2C)-n2c(C)nnc21 [Compound I-76]
19 | 1500 to 3000 | CCNC(=O)C[C@@H]1N=C(c2ccc(CCCC3CCN(c4ncc(C(=O)N[C@H]5C(C)(C)[C@H](Oc6ccc(C#N)c(Cl)c6)C5(C)C)cn4)CC3)cc2)c2c(sc(C)c2C)-n2c(C)nnc21 [Compound I-95]
20 | 500 to 1500 | Cc1sc2c(c1C)C(c1ccc(CCCOC3CCN(c4ncc(C(=O)N[C@H]5C(C)(C)[C@H](Oc6ccc(C#N)c(Cl)c6)C5(C)C)cn4)CC3)cc1)=N[C@@H](CC(=O)NC(C)C)c1nnc(C)n1-2 [Compound I-100]
21 | > 3000 | CCN(C)C(=O)C[C@@H]1N=C(c2ccc(CCCOC3CCN(c4ncc(C(=O)N[C@H]5C(C)(C)[C@H](Oc6ccc(C#N)c(Cl)c6)C5(C)C)cn4)CC3)cc2)c2c(sc(C)c2C)-n2c(C)nnc21 [Compound I-101]
22 | < 500 | Cc1sc2c(c1C)C(c1ccc(CCCOC3CCN(c4ncc(C(=O)N[C@H]5C(C)(C)[C@H](Oc6ccc(C#N)c(Cl)c6)C5(C)C)cn4)CC3)cc1)=N[C@@H](CC(=O)NC1CC1)c1nnc(C)n1-2 [Compound I-102]
